19 compounds from the supplement of paper PMC8967900 can be followed below.
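Further: ALL cell lines in 384-well plates, five doses spanning 10,000-fold, each plate scaled between vehicle and 100 µmol/L benzalkonium chloride controls, sDSS an adapted area-under-curve metric.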

The subject of the first test is PF-382. Nature of the test: selective drug sensitivity score (sDSS, relative to normal bone marrow) (sDSS (score)); higher = more potent and effective on the cell line relative to normal bone marrow cells. Conditions: 72 h.
In the case of `Cn1nccc1Nc1nccc(-c2ccn([C@H](CO)c3ccc(Cl)c(F)c3)c(=O)c2)n1` [Ravoxertinib] (top concentration 10000 nM), the “selective drug sensitivity score” value came to 1.2.

Consider `CC1=NN(c2ccc(C(=O)O)cc2)C(=O)C1=Cc1ccc(-c2cc(C)c(C)cc2[N+](=O)[O-])o1` [C646] (top concentration 25000 nM), for which the “selective drug sensitivity score” value amounted to 0.64.

Consider `CC(C)c1cc(C(=O)N2Cc3ccc(CN4CCN(C)CC4)cc3C2)c(O)cc1O` [Onalespib] (top concentration 2500 nM), for which the “selective drug sensitivity score” value was 5.62.

Regarding `CCN1C(=O)CNc2ncc(-c3ccc(-c4nc[nH]n4)nc3C)nc21` [CC-115] (top concentration 10000 nM), the “selective drug sensitivity score” value amounted to 2.14.

As for `COc1cc(N2CCC(N3CCN(C)CC3)CC2)ccc1Nc1ncc(Cl)c(Nc2ccccc2P(C)(C)=O)n1` [Brigatinib] (top concentration 1000 nM), the “selective drug sensitivity score” value is -2.84.

For the compound `CN1CCN(c2nc(C3=C(c4c[nH]c5ccccc45)C(=O)NC3=O)c3ccccc3n2)CC1` [Sotrastaurin] (top concentration 10000 nM), the “selective drug sensitivity score” value is -1.9.

As for `CCN(CC)Cc1ccc2cc(COC(=O)Nc3ccc(C(=O)NO)cc3)ccc2c1` [Givinostat] (top concentration 1000 nM), the “selective drug sensitivity score” value turned out to be 2.9.

Turning to `CNC(=O)c1cc(Oc2ccc(NC(=O)Nc3ccc(Cl)c(C(F)(F)F)c3)cc2)ccn1` [Sorafenib] (top concentration 1000 nM), the “selective drug sensitivity score” value came to 1.3.

In the case of `COc1ccc(S(=O)(=O)Nc2cccnc2Nc2ccc(O)cc2)cc1` [ABT-751] (top concentration 10000 nM), the “selective drug sensitivity score” value was determined as 9.42.

`C[C@@H](Oc1ccc2[nH]nc(/C=C/c3cnn(CCO)c3)c2c1)c1c(Cl)cncc1Cl` (top concentration 1000 nM): the “selective drug sensitivity score” value is -2.14.

For another test, the system named is SUP-B15. The description is as above. Conditions: 72 h.
Consider `Cc1nc(Nc2ncc(C(=O)Nc3c(C)cccc3Cl)s2)cc(N2CCN(CCO)CC2)n1` [Dasatinib] (top concentration 1000 nM), for which the “selective drug sensitivity score” value came to 30.2.

Take `N[C@@H]1CCCN(c2c(/C=C3\SC(=O)NC3=O)cccc2-c2ccccc2)C1` [AZD1208] (top concentration 10000 nM): the “selective drug sensitivity score” value is -4.4.

As for `CC(C)C[C@H](NC(=O)CNC(=O)c1cc(Cl)ccc1Cl)B(O)O` [Ixazomib] (top concentration 1000 nM), the “selective drug sensitivity score” value is 11.5.

Regarding `C=CC(=O)N1CCC[C@@H](n2nc(-c3ccc(Oc4ccccc4)cc3)c3c(N)ncnc32)C1` [Ibrutinib] (top concentration 1000 nM), the “selective drug sensitivity score” value is 10.

With `Cn1cnc2c(F)c(Nc3ccc(Br)cc3F)c(C(=O)NOCCO)cc21` [Binimetinib] (top concentration 1000 nM), the “selective drug sensitivity score” value was 11.2.

As to `COc1cc(Nc2ncc(F)c(Nc3ccc4c(n3)N(COP(=O)(O)O)C(=O)C(C)(C)O4)n2)cc(OC)c1OC` [Fostamatinib] (top concentration 2500 nM), the “selective drug sensitivity score” value worked out at 0.96.

Regarding `COc1cc2c(Oc3ccc(NC(=O)C4(C(=O)Nc5ccc(F)cc5)CC4)cc3F)ccnc2cc1OCCCN1CCOCC1` [Foretinib] (top concentration 1000 nM), the “selective drug sensitivity score” value is 8.74.

As to `Sc1ncnc2nc[nH]c12` [Mercaptopurine] (top concentration 10000 nM), the “selective drug sensitivity score” value was determined as 12.7.

As to `COCCNCc1ccc(-c2cc3nccc(Oc4ccc(NC(=S)NC(=O)Cc5ccc(F)cc5)cc4F)c3s2)nc1` [Glesatinib] (top concentration 2500 nM), the “selective drug sensitivity score” value was 7.24.

Regarding `Cn1nccc1Nc1nccc(-c2ccn([C@H](CO)c3ccc(Cl)c(F)c3)c(=O)c2)n1` [Ravoxertinib] (top concentration 10000 nM), the “selective drug sensitivity score” value was determined as 12.6.

As to `CC1=NN(c2ccc(C(=O)O)cc2)C(=O)C1=Cc1ccc(-c2cc(C)c(C)cc2[N+](=O)[O-])o1` [C646] (top concentration 25000 nM), the “selective drug sensitivity score” value was found to be 5.04.

For `CC(C)c1cc(C(=O)N2Cc3ccc(CN4CCN(C)CC4)cc3C2)c(O)cc1O` [Onalespib] (top concentration 2500 nM), the “selective drug sensitivity score” value was found to be 3.92.

With `CCN1C(=O)CNc2ncc(-c3ccc(-c4nc[nH]n4)nc3C)nc21` [CC-115] (top concentration 10000 nM), the “selective drug sensitivity score” value came to 2.34.

Take `COc1cc(N2CCC(N3CCN(C)CC3)CC2)ccc1Nc1ncc(Cl)c(Nc2ccccc2P(C)(C)=O)n1` [Brigatinib] (top concentration 1000 nM): the “selective drug sensitivity score” value is -3.34.

For `CN1CCN(c2nc(C3=C(c4c[nH]c5ccccc45)C(=O)NC3=O)c3ccccc3n2)CC1` [Sotrastaurin] (top concentration 10000 nM), the “selective drug sensitivity score” value is 2.2.

As for `CCN(CC)Cc1ccc2cc(COC(=O)Nc3ccc(C(=O)NO)cc3)ccc2c1` [Givinostat] (top concentration 1000 nM), the “selective drug sensitivity score” value stood at 8.1.

As for `CNC(=O)c1cc(Oc2ccc(NC(=O)Nc3ccc(Cl)c(C(F)(F)F)c3)cc2)ccn1` [Sorafenib] (top concentration 1000 nM), the “selective drug sensitivity score” value amounted to 0.

Take `COc1ccc(S(=O)(=O)Nc2cccnc2Nc2ccc(O)cc2)cc1` [ABT-751] (top concentration 10000 nM): the “selective drug sensitivity score” value stood at 10.8.

Turning to `C[C@@H](Oc1ccc2[nH]nc(/C=C/c3cnn(CCO)c3)c2c1)c1c(Cl)cncc1Cl` (top concentration 1000 nM), the “selective drug sensitivity score” value turned out to be 6.76.

The next test concerns JURKAT. The test is described as above. Conditions: 72 h.
Take `Cc1nc(Nc2ncc(C(=O)Nc3c(C)cccc3Cl)s2)cc(N2CCN(CCO)CC2)n1` [Dasatinib] (top concentration 1000 nM): the “selective drug sensitivity score” value was -2.8.

With `N[C@@H]1CCCN(c2c(/C=C3\SC(=O)NC3=O)cccc2-c2ccccc2)C1` [AZD1208] (top concentration 10000 nM), the “selective drug sensitivity score” value is -4.2.

As for `CC(C)C[C@H](NC(=O)CNC(=O)c1cc(Cl)ccc1Cl)B(O)O` [Ixazomib] (top concentration 1000 nM), the “selective drug sensitivity score” value turned out to be 4.86.

With `C=CC(=O)N1CCC[C@@H](n2nc(-c3ccc(Oc4ccccc4)cc3)c3c(N)ncnc32)C1` [Ibrutinib] (top concentration 1000 nM), the “selective drug sensitivity score” value worked out at 0.

For `Cn1cnc2c(F)c(Nc3ccc(Br)cc3F)c(C(=O)NOCCO)cc21` [Binimetinib] (top concentration 1000 nM), the “selective drug sensitivity score” value was -2.02.

In the case of `COc1cc(Nc2ncc(F)c(Nc3ccc4c(n3)N(COP(=O)(O)O)C(=O)C(C)(C)O4)n2)cc(OC)c1OC` [Fostamatinib] (top concentration 2500 nM), the “selective drug sensitivity score” value was -2.14.

Consider `COc1cc2c(Oc3ccc(NC(=O)C4(C(=O)Nc5ccc(F)cc5)CC4)cc3F)ccnc2cc1OCCCN1CCOCC1` [Foretinib] (top concentration 1000 nM), for which the “selective drug sensitivity score” value was -4.36.

For `Sc1ncnc2nc[nH]c12` [Mercaptopurine] (top concentration 10000 nM), the “selective drug sensitivity score” value is 10.3.

As to `COCCNCc1ccc(-c2cc3nccc(Oc4ccc(NC(=S)NC(=O)Cc5ccc(F)cc5)cc4F)c3s2)nc1` [Glesatinib] (top concentration 2500 nM), the “selective drug sensitivity score” value was -1.96.

On to `Cn1nccc1Nc1nccc(-c2ccn([C@H](CO)c3ccc(Cl)c(F)c3)c(=O)c2)n1` [Ravoxertinib] (top concentration 10000 nM), for which the “selective drug sensitivity score” value was -0.8.

Take `CC1=NN(c2ccc(C(=O)O)cc2)C(=O)C1=Cc1ccc(-c2cc(C)c(C)cc2[N+](=O)[O-])o1` [C646] (top concentration 25000 nM): the “selective drug sensitivity score” value came to 0.94.

For the compound `CC(C)c1cc(C(=O)N2Cc3ccc(CN4CCN(C)CC4)cc3C2)c(O)cc1O` [Onalespib] (top concentration 2500 nM), the “selective drug sensitivity score” value is -1.18.

Regarding `CCN1C(=O)CNc2ncc(-c3ccc(-c4nc[nH]n4)nc3C)nc21` [CC-115] (top concentration 10000 nM), the “selective drug sensitivity score” value turned out to be 1.24.

For the compound `COc1cc(N2CCC(N3CCN(C)CC3)CC2)ccc1Nc1ncc(Cl)c(Nc2ccccc2P(C)(C)=O)n1` [Brigatinib] (top concentration 1000 nM), the “selective drug sensitivity score” value is -3.34.

As for `CN1CCN(c2nc(C3=C(c4c[nH]c5ccccc45)C(=O)NC3=O)c3ccccc3n2)CC1` [Sotrastaurin] (top concentration 10000 nM), the “selective drug sensitivity score” value is -1.7.

On to `CCN(CC)Cc1ccc2cc(COC(=O)Nc3ccc(C(=O)NO)cc3)ccc2c1` [Givinostat] (top concentration 1000 nM), for which the “selective drug sensitivity score” value was 0.9.

As for `CNC(=O)c1cc(Oc2ccc(NC(=O)Nc3ccc(Cl)c(C(F)(F)F)c3)cc2)ccn1` [Sorafenib] (top concentration 1000 nM), the “selective drug sensitivity score” value amounted to 0.4.

On to `COc1ccc(S(=O)(=O)Nc2cccnc2Nc2ccc(O)cc2)cc1` [ABT-751] (top concentration 10000 nM), for which the “selective drug sensitivity score” value was 15.6.

For `C[C@@H](Oc1ccc2[nH]nc(/C=C/c3cnn(CCO)c3)c2c1)c1c(Cl)cncc1Cl` (top concentration 1000 nM), the “selective drug sensitivity score” value was -4.84.
